Measured values published in PubChem BioAssay (NCI).
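Results reflect a 48-hour exposure of cells in 96-well plates to compound at five concentrations. Here, GI50 denotes the concentration required for 50% inhibition of growth. At the TGI there is no net growth.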

Experiments:
Assay in all cases: growth of human tumour cells (NCI), 48 h
[1] = system: 786-0 renal
[2] = system: A498 renal
[3] = system: A549 NSCLC
[4] = system: ACHN renal
[5] = system: CAKI-1 renal
[6] = system: CCRF-CEM leukemia
[7] = system: COLO 205 colon
[8] = system: DU-145 prostate
[9] = system: HCC-2998 colon
[10] = system: HCT-116 colon
[11] = system: HCT-15 colon
[12] = system: HOP-62 NSCLC
[13] = system: HOP-92 NSCLC
[14] = system: HS 578T breast
[15] = system: IGROV1 ovarian
[16] = system: K-562 leukemia
[17] = system: KM12 colon
[18] = system: LOX IMVI melanoma
[19] = system: M14 melanoma
[20] = system: MALME-3M melanoma
[21] = system: MCF7 breast
[22] = system: MDA-MB-435
[23] = system: MOLT-4 leukemia
[24] = system: NCI-H226 lung
[25] = system: NCI-H23 lung
[26] = system: NCI-H460 lung
[27] = system: NCI-H522 lung
[28] = system: NCI/ADR-RES ovarian
[29] = system: OVCAR-3 ovarian
[30] = system: OVCAR-4 ovarian
[31] = system: OVCAR-5 ovarian
[32] = system: OVCAR-8 ovarian
[33] = system: PC-3 prostate
[34] = system: RPMI-8226 leukemia
[35] = system: RXF 393 renal
[36] = system: SF-268 CNS
[37] = system: SF-295 CNS
[38] = system: SK-MEL-2 melanoma
[39] = system: SK-MEL-28 melanoma
[40] = system: SK-MEL-5 melanoma
[41] = system: SK-OV-3 ovarian
[42] = system: SN12C renal
[43] = system: SNB-19 CNS
[44] = system: SR leukemia
[45] = system: T-47D breast
[46] = system: TK-10 renal
[47] = system: U251 CNS
[48] = system: UACC-62 melanoma
[49] = system: UO-31 renal

Molecule `O=C1C(Cl)=C(Nc2cccc(Cl)c2)C(=O)N1Cc1ccccc1` has a GI50 [1] of 3.85 µM, a TGI [1] of 16.2 µM and a GI50 [2] of 10.6 µM. For the same molecule, the TGI [2] was 22.7 µM, the GI50 [3] was 16.1 µM and the TGI [3] was 39.9 µM. It also gave a GI50 [4] of 14 µM, a TGI [4] of 28.8 µM and a GI50 [5] of 5.06 µM. For the same molecule, the TGI [5] was 27.7 µM, the GI50 [6] was 2.39 µM and the TGI [6] was > 100 µM. The GI50 [7] was 15.7 µM, the TGI [7] was > 100 µM and the GI50 [8] was 15.3 µM. For the same molecule, the TGI [8] was 30.6 µM, the GI50 [9] was 4.59 µM and the TGI [9] was 18.1 µM. It also gave a GI50 [10] of 3.56 µM, a TGI [10] of 13.3 µM and a GI50 [11] of 10.8 µM. The TGI [11] was 27.4 µM, the GI50 [12] was 11.2 µM and the TGI [12] was 24.4 µM. It also gave a GI50 [13] of 5.36 µM, a TGI [13] of 26.3 µM and a GI50 [14] of 6.34 µM. For the same molecule, the TGI [14] was 27.5 µM, the GI50 [15] was 8.15 µM and the TGI [15] was > 100 µM. The GI50 [16] was 2.9 µM, the TGI [16] was > 100 µM and the GI50 [17] was 11.5 µM. It also gave a TGI [17] of 26.9 µM, a GI50 [18] of 4.01 µM and a TGI [18] of 15.3 µM. For the same molecule, the GI50 [19] was 6.73 µM, the TGI [19] was 22.5 µM and the GI50 [20] was 5.12 µM. For the same molecule, the TGI [20] was 20.1 µM, the GI50 [21] was 14.9 µM and the TGI [21] was > 100 µM. It also gave a GI50 [22] of 2.26 µM, a TGI [22] of 7.17 µM and a GI50 [23] of 3.38 µM. The TGI [23] was > 100 µM, the GI50 [24] was 10.5 µM and the TGI [24] was 29.3 µM. For the same molecule, the GI50 [25] was 5.94 µM, the TGI [25] was 23.4 µM and the GI50 [26] was 7.11 µM. For the same molecule, the TGI [26] was 27.9 µM, the GI50 [27] was 14.2 µM and the TGI [27] was > 100 µM. It also gave a GI50 [28] of 6.87 µM, a TGI [28] of 24.7 µM and a GI50 [29] of 5.02 µM. The TGI [29] was 17.7 µM, the GI50 [30] was 22.3 µM and the TGI [30] was 67.4 µM. It also gave a GI50 [31] of 9.49 µM, a TGI [31] of 33.1 µM and a GI50 [32] of 4.63 µM. For the same molecule, the TGI [32] was 32 µM, the GI50 [33] was 3.52 µM and the TGI [33] was 20.1 µM. It also gave a GI50 [34] of 1.37 µM, a TGI [34] of 7.9 µM and a GI50 [35] of 1.36 µM. For the same molecule, the TGI [35] was 7 µM, the GI50 [36] was 6.76 µM and the TGI [36] was 22.2 µM. It also gave a GI50 [37] of 6.28 µM, a TGI [37] of 20.1 µM and a GI50 [38] of 21.7 µM. The TGI [38] was > 100 µM, the GI50 [39] was 19.5 µM and the TGI [39] was 55.5 µM. For the same molecule, the GI50 [40] was 6.83 µM, the TGI [40] was 20.3 µM and the GI50 [41] was 15.7 µM. For the same molecule, the TGI [41] was 35 µM, the GI50 [42] was 11.2 µM and the TGI [42] was 25.1 µM. For the same molecule, the GI50 [43] was 14.5 µM, the TGI [43] was 55.1 µM and the GI50 [44] was 2.19 µM. The TGI [44] was 29.3 µM, the GI50 [45] was 33.8 µM and the TGI [45] was > 100 µM. It also gave a GI50 [46] of 13.9 µM, a TGI [46] of 32.3 µM and a GI50 [47] of 3.98 µM. The TGI [47] was 15.5 µM, the GI50 [48] was 12.4 µM and the TGI [48] was 27.5 µM. It also gave a GI50 [49] of 6.94 µM and a TGI [49] of 25.8 µM.
